From patent publication EP3717657B1, “A SYSTEM FOR ASSESSING MICROBIAL SUSCEPTIBILITY TO ANTIBIOTIC AGENTS” (Ascilion AB, priority 2017, dated 2019)

Experiments:
[1] = system: Escherichia coli (ATCC 25922); assay: Antibiotic susceptibility by glucose consumption in culture medium, blood culture bottle inoculum (Example 1); format: cell-based; details: for Glucose concentration t=0: 0 minutes; for Glucose concentration t=60: 60 minutes; for Glucose concentration t=120: 120 minutes; for Glucose concentration t=180: 180 minutes; for dC/dT: rate of change in glucose concentration; for Glucose concentration t=240: 240 minutes;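 for dC/dT: rate calculated between the 60 and 180 min readings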
Protocol: (§1) Strains of Escherichia coli (ATCC 25922), Enterococcus faecalis (ATCC 29212) and Staphylococcus aureus (ATCC 29213) were inoculated in blood culture bottles (SVA, Uppsala, Sweden) and cultivated according to the manufacturer's instructions until positive.
(§2) Medium from each blood culture bottle was diluted 1:100 with cation adjusted Mueller-Hinton broth (SVA, Uppsala, Sweden) supplemented with glucose to a concentration of 1.0 mg/mL.
(§3) Table 1: Concentrations of antibiotic agents are given in µg/mL.
(§4) Glucose concentrations were measured at 0, 60, 120, 180, and 240 minutes using a WaveSense Jazz glucometer (AgaMatrix, Inc., Salem, NH, USA) with accompanying test strips.
(§5) Susceptibility scores corresponding to MIC values were calculated as described above. A 80% threshold was applied, i.e. the lowest concentration of antibiotic that entailed a rate of change in glucose concentration that was equal to or less than 80% of the reference was selected as the Minimal Inhibitory Concentration. The rate of change was calculated between the measurements at 60 and 180 minutes.

[2] = system: Staphylococcus aureus (ATCC 29213); assay: as above; format: cell-based; details: for Glucose concentration t=0: 0 minutes; for Glucose concentration t=60: 60 minutes; for Glucose concentration t=120: 120 minutes; for Glucose concentration t=180: 180 minutes; for Glucose concentration t=240: 240 minutes; for dC/dT: rate of change in glucose concentration;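 for dC/dT: rate calculated between the 60 and 180 min readings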
Protocol: as §1, §2, §3, §4, §5

Gentamicin
MIC Measured ([1]; E.coli, 80% threshold of rate of change vs reference, between 60 and 180 minutes, obtained in 4 hours): 1 µg/mL
F=the rate of change in glucose concentration in relation to the reference ([1]; [Ab] 0,5 µg/mL): 121%
Glucose concentration t=0 ([1]; [Ab] 0,5 µg/mL): 144
Glucose concentration t=60 ([1]; [Ab] 0,5 µg/mL): 147
Glucose concentration t=120 ([1]; [Ab] 0,5 µg/mL): 147
Glucose concentration t=180 ([1]; [Ab] 0,5 µg/mL): 72
dC/dT ([1]; [Ab] 0,5 µg/mL): 75
F=the rate of change in glucose concentration in relation to the reference ([1]; [Ab] 0,25 µg/mL): 139%
Glucose concentration t=0 ([1]; [Ab] 0,25 µg/mL): 149
Glucose concentration t=60 ([1]; [Ab] 0,25 µg/mL): 152
Glucose concentration t=120 ([1]; [Ab] 0,25 µg/mL): 144
Glucose concentration t=180 ([1]; [Ab] 0,25 µg/mL): 58
dC/dT ([1]; [Ab] 0,25 µg/mL): 86
F=the rate of change in glucose concentration in relation to the reference ([1]; [Ab] 1 µg/mL): 77%
Glucose concentration t=0 ([1]; [Ab] 1 µg/mL): 144
Glucose concentration t=60 ([1]; [Ab] 1 µg/mL): 155
Glucose concentration t=120 ([1]; [Ab] 1 µg/mL): 148
Glucose concentration t=180 ([1]; [Ab] 1 µg/mL): 111
Glucose concentration t=240 ([1]; [Ab] 1 µg/mL): 53
dC/dT ([1]; [Ab] 1 µg/mL): 48
F=the rate of change in glucose concentration in relation to the reference ([1]; [Ab] 2 µg/mL): 9%
Glucose concentration t=60 ([1]; [Ab] 2 µg/mL): 161
Glucose concentration t=120 ([1]; [Ab] 2 µg/mL): 151
Glucose concentration t=180 ([1]; [Ab] 2 µg/mL): 143
Glucose concentration t=240 ([1]; [Ab] 2 µg/mL): 140
dC/dT ([1]; [Ab] 2 µg/mL): 6
F=the rate of change in glucose concentration in relation to the reference ([1]; [Ab] 4 µg/mL): 7%
Glucose concentration t=0 ([1]; [Ab] 4 µg/mL): 147
Glucose concentration t=60 ([1]; [Ab] 4 µg/mL): 163
Glucose concentration t=120 ([1]; [Ab] 4 µg/mL): 157
Glucose concentration t=180 ([1]; [Ab] 4 µg/mL): 148
Glucose concentration t=240 ([1]; [Ab] 4 µg/mL): 148
dC/dT ([1]; [Ab] 4 µg/mL): 5
F=the rate of change in glucose concentration in relation to the reference ([1]; [Ab] 8 µg/mL): 7%
Glucose concentration t=0 ([1]; [Ab] 8 µg/mL): 144
Glucose concentration t=60 ([1]; [Ab] 8 µg/mL): 156
Glucose concentration t=120 ([1]; [Ab] 8 µg/mL): 153
Glucose concentration t=180 ([1]; [Ab] 8 µg/mL): 150
Glucose concentration t=240 ([1]; [Ab] 8 µg/mL): 144
dC/dT ([1]; [Ab] 8 µg/mL): 5
F=the rate of change in glucose concentration in relation to the reference ([1]; [Ab] 16 µg/mL): 1%
Glucose concentration t=0 ([1]; [Ab] 16 µg/mL): 143
Glucose concentration t=60 ([1]; [Ab] 16 µg/mL): 155
Glucose concentration t=120 ([1]; [Ab] 16 µg/mL): 152
Glucose concentration t=180 ([1]; [Ab] 16 µg/mL): 149
Glucose concentration t=240 ([1]; [Ab] 16 µg/mL): 153
dC/dT ([1]; [Ab] 16 µg/mL): 1
F=the rate of change in glucose concentration in relation to the reference ([1]; [Ab] 32 µg/mL): 6%
Glucose concentration t=0 ([1]; [Ab] 32 µg/mL): 148
Glucose concentration t=60 ([1]; [Ab] 32 µg/mL): 158
Glucose concentration t=120 ([1]; [Ab] 32 µg/mL): 155
Glucose concentration t=180 ([1]; [Ab] 32 µg/mL): 150
Glucose concentration t=240 ([1]; [Ab] 32 µg/mL): 147
dC/dT ([1]; [Ab] 32 µg/mL): 4
MIC Measured ([2]; S.aureus, 80% threshold of rate of change vs reference, between 60 and 180 minutes, obtained in 4 hours): 0.25 µg/mL
F=the rate of change in glucose concentration in relation to the reference ([2]; [Ab] 0,5 µg/mL): 57%
Glucose concentration t=0 ([2]; [Ab] 0,5 µg/mL): 143
Glucose concentration t=60 ([2]; [Ab] 0,5 µg/mL): 154
Glucose concentration t=120 ([2]; [Ab] 0,5 µg/mL): 137
Glucose concentration t=180 ([2]; [Ab] 0,5 µg/mL): 116
Glucose concentration t=240 ([2]; [Ab] 0,5 µg/mL): 78
dC/dT ([2]; [Ab] 0,5 µg/mL): 19
F=the rate of change in glucose concentration in relation to the reference ([2]; [Ab] 0,25 µg/mL): 66%
Glucose concentration t=0 ([2]; [Ab] 0,25 µg/mL): 143
Glucose concentration t=60 ([2]; [Ab] 0,25 µg/mL): 146
Glucose concentration t=120 ([2]; [Ab] 0,25 µg/mL): 140
Glucose concentration t=180 ([2]; [Ab] 0,25 µg/mL): 102
Glucose concentration t=240 ([2]; [Ab] 0,25 µg/mL): 55
dC/dT ([2]; [Ab] 0,25 µg/mL): 22
F=the rate of change in glucose concentration in relation to the reference ([2]; [Ab] 1 µg/mL): 30%
Glucose concentration t=0 ([2]; [Ab] 1 µg/mL): 137
Glucose concentration t=60 ([2]; [Ab] 1 µg/mL): 154
Glucose concentration t=120 ([2]; [Ab] 1 µg/mL): 146
Glucose concentration t=180 ([2]; [Ab] 1 µg/mL): 134
Glucose concentration t=240 ([2]; [Ab] 1 µg/mL): 119
dC/dT ([2]; [Ab] 1 µg/mL): 10
F=the rate of change in glucose concentration in relation to the reference ([2]; [Ab] 2 µg/mL): 12%
Glucose concentration t=0 ([2]; [Ab] 2 µg/mL): 144
Glucose concentration t=60 ([2]; [Ab] 2 µg/mL): 154
Glucose concentration t=180 ([2]; [Ab] 2 µg/mL): 146
Glucose concentration t=240 ([2]; [Ab] 2 µg/mL): 148
dC/dT ([2]; [Ab] 2 µg/mL): 4
F=the rate of change in glucose concentration in relation to the reference ([2]; [Ab] 4 µg/mL): 10%
Glucose concentration t=60 ([2]; [Ab] 4 µg/mL): 157
Glucose concentration t=120 ([2]; [Ab] 4 µg/mL): 147
Glucose concentration t=180 ([2]; [Ab] 4 µg/mL): 150
Glucose concentration t=240 ([2]; [Ab] 4 µg/mL): 149
dC/dT ([2]; [Ab] 4 µg/mL): 4
F=the rate of change in glucose concentration in relation to the reference ([2]; [Ab] 8 µg/mL): 0%
Glucose concentration t=0 ([2]; [Ab] 8 µg/mL): 142
Glucose concentration t=60 ([2]; [Ab] 8 µg/mL): 154
Glucose concentration t=120 ([2]; [Ab] 8 µg/mL): 150
Glucose concentration t=180 ([2]; [Ab] 8 µg/mL): 154
Glucose concentration t=240 ([2]; [Ab] 8 µg/mL): 140
dC/dT ([2]; [Ab] 8 µg/mL): 0
F=the rate of change in glucose concentration in relation to the reference ([2]; [Ab] 16 µg/mL): 0%
Glucose concentration t=0 ([2]; [Ab] 16 µg/mL): 139
Glucose concentration t=60 ([2]; [Ab] 16 µg/mL): 145
Glucose concentration t=120 ([2]; [Ab] 16 µg/mL): 150
Glucose concentration t=180 ([2]; [Ab] 16 µg/mL): 145
Glucose concentration t=240 ([2]; [Ab] 16 µg/mL): 145
dC/dT ([2]; [Ab] 16 µg/mL): 0
F=the rate of change in glucose concentration in relation to the reference ([2]; [Ab] 32 µg/mL): 3%
Glucose concentration t=0 ([2]; [Ab] 32 µg/mL): 144
Glucose concentration t=60 ([2]; [Ab] 32 µg/mL): 148
Glucose concentration t=120 ([2]; [Ab] 32 µg/mL): 145
Glucose concentration t=180 ([2]; [Ab] 32 µg/mL): 146
Glucose concentration t=240 ([2]; [Ab] 32 µg/mL): 145
dC/dT ([2]; [Ab] 32 µg/mL): 1
